Experimental data reported in PubChem BioAssay (NCI).
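Assay format: 96-well plates, 48-hour exposure. TGI marks complete inhibition of growth.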

Assays:
Assay in all cases: NCI tumour cell line growth inhibition, 48 h
DMS 114 small cell lung = test system: DMS 114 small cell lung
LXFL 529 NSCLC = test system: LXFL 529 NSCLC
HOP-18 NSCLC = test system: HOP-18 NSCLC
P388 leukemia = test system: P388 leukemia
XF 498 CNS = test system: XF 498 CNS
SN12K1 renal = test system: SN12K1 renal
P388/ADR leukemia = test system: P388/ADR leukemia
RXF-631 renal = test system: RXF-631 renal

Measured: TGI

O=S1(=O)NNC(=NCc2ccc(Cl)c(Cl)c2)c2ccccc21
> 100 µM: DMS 114 small cell lung | LXFL 529 NSCLC | HOP-18 NSCLC

COc1cc2cc[n+](C)c(Cc3ccccc3)c2cc1OC
> 100 µM: DMS 114 small cell lung | LXFL 529 NSCLC | HOP-18 NSCLC

CNC(C)Cc1ccccc1O (configuration not stated)
> 100 µM: DMS 114 small cell lung | LXFL 529 NSCLC | HOP-18 NSCLC

Nc1ccc2c(c1)C1=NNC(=O)CC1C2 (configuration not stated)
not listed: LXFL 529 NSCLC | RXF-631 renal
> 100 µM: all other assays above

CC1SC(c2ccccc2)N(Nc2c3ccccc3nc3ccccc23)C1=O (configuration not stated)
> 100 µM: XF 498 CNS | DMS 114 small cell lung | LXFL 529 NSCLC

O=C(N/C(=C\c1ccccc1[N+](=O)[O-])c1nc2ccccc2[nH]1)c1ccccc1
> 100 µM: XF 498 CNS | RXF-631 renal | LXFL 529 NSCLC

O=c1[nH][nH]c(=O)[nH]1
> 100 µM: XF 498 CNS
